This note sets out measurements from PMC5705272 (Neurobiology of aging, 2017).

In general, IC50 refers to the concentration at which inhibition is half-maximal. Low readings indicate greater potency in that assay, high ones weaker potency in that assay.

For this test, the target named is T1, PKC-λ/ι (PKC-ι) (Homo sapiens, UniProt P41743).
T1 sequence (P41743 2-596): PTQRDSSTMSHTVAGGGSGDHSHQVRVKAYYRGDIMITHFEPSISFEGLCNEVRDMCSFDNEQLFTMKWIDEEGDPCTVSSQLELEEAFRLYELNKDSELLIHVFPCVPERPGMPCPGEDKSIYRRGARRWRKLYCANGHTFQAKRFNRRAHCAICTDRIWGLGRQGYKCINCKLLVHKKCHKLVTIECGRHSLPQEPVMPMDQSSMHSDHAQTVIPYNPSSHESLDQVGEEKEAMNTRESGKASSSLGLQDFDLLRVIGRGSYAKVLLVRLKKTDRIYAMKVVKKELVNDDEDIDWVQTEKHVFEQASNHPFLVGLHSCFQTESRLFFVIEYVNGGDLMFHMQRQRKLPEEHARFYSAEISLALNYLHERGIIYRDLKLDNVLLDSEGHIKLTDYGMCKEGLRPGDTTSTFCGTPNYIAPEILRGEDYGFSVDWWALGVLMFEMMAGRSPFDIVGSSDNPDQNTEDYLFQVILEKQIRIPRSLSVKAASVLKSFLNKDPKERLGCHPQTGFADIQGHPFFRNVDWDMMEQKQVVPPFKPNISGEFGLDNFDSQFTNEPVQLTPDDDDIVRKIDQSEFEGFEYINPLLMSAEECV
It is filed as cell-based.

Molecule `NC(=O)c1ncn([C@@H]2C[C@H](COP(=O)(O)O)[C@@H](O)[C@H]2O)c1N` [ICAPP, 1H-imidazole-4-carboxamide,5-amino]-[2,3-dihydroxy-4-[(phosphono-oxy)methyl]cyclopentane-[1R-(1a,2b,3b,4a)]] returned an IC50 of 1 to 10 nM.
